In patent US11679107B2 (Eisai R&D Management Co., Ltd., priority 2018, dated 2023):
Read-outs that look alike come from different tables or passages of the source.

Columns and labels:
[1] = system: Ad2 variant pre-mRNAs spliced in HeLa S3 nuclear extracts; experiment: In vitro splicing assay (IVS), RT-qPCR of spliced product; type: biochemical; settings: for IC50: geometric mean
Description: (§1) Batch immobilization of anti-SF3B1 antibody (MBL) to anti-mouse PVT SPA scintillation beads (PerkinElmer) was prepared as follows: for every 2.5 mg of nuclear extracts, 5 μg anti-SF3B1 antibody and 1.5 mg of beads were mixed in 150 μl PBS. The antibody-bead mixture was incubated for 30 min at RT and centrifuged at 18,000 g for 5 min. 150 μl PBS was used to resuspend every 1.5 mg antibody-bead mixture. The beads were suspended and added to the prepared nuclear extracts. The slurry was incubated for 2 h at 4° C. with gentle mixing. The beads were then collected by centrifuging at 18,000 g for 5 min, and washed twice with PBS+0.1% Triton X-100. After a final centrifugation step, every 1.5 mg of beads was suspended with 150 μl of PBS. The SF3b complexes were tested for [^3H]-labelled pladienolide probe binding ([^3H]—PB), synthesized as previously described (Kotake et al., 2007). 100 μl binding reactions were prepared with 50 μl bead slurry and by adding varying concentrations of PB or PB—OH, and after 30 min pre-incubation, 2.5 nM [^3H]—PB was added. The mixture was incubated for 30 min, and luminescence signals were read using a MicroBeta2 Plate Counter (PerkinElmer). Prism 6 (Graphpad) was used for non-linear regression curve fitting of the data. • a. • b. HeLa nuclear extract preparation (for in vitro splicing modulation assay below) • c. HeLa S3 cell pellets were resuspended in hypotonic buffer (10 mM HEPES pH 7.9, 1.5 mM MgCl2, 10 mM KCl, 0.2 mM PMSF, and 0.5 mM DTT) and the suspension was brought up to a total of 5 packed cell volume (PCV). After centrifugation, the supernatant was discarded, and the cells were brought up to 3 PCV with hypotonic buffer and incubated on ice for 10 minutes. Cells were lysed using a dounce homogenizer and then centrifuged. The supernatant was discarded, and the pellet was resuspended with ½ packed nuclear volume (PNV) of low salt buffer (20 mM HEPES pH 7.9, 1.5 mM MgCl2, 20 mM KCl, 0.2 mM EDTA, 25% glycerol, 0.2 mM PMSF, 0.5 mM DTT), followed by ½ PNV of high salt buffer (same as low salt buffer except 1.4 M KCl was used). The nuclei were gently mixed for 30 minutes before centrifuging. The supernatant (nuclear extract) was then dialyzed into storage buffer (20 mM HEPES pH 7.9, 100 mM KCl, 0.2 mM EDTA, 20% glycerol, 0.2 mM PMSF, 0.5 mM DTT). Protein concentration was determined using NanoDrop 8000 UV-Vis spectrophotometer (ThermoFisher Scientific). • d. In vitro splicing assay (IVS)
All Ad2-derived (Pellizzoni et al., 1998) sequences were cloned into pcDNA3.1(+) vector (Promega) using 5′ EcoRI and 3′ XbaI restriction sites. The plasmids were linearized using XbaI and used as DNA templates in the in vitro transcription reactions. The FtzΔi intron-less plasmid (Luo and Reed, 1999) was linearized using EcoRI. All RNAs were in vitro transcribed and then purified using MEGAScript T7 (Invitrogen) and MegaClear (Invitrogen) kits, respectively. For splicing reactions using Ad2 variant pre-mRNAs, […] reactions were prepared using 8 μg nuclear extracts prepared from HeLa S3, 2 ng pre-mRNA, 0.2 ng FTZΔi, and varying concentrations of exemplary payloads or DMSO. After a 15 minute pre-incubation at 30° C., 1 μL splicing activation buffer (0.5 mM ATP, 20 mM creatine phosphate, 1.6 mM MgCl2) was added, and the reactions were incubated for 90 minutes at 30° C. The reactions were then quenched with 13 μL it DMSO, and 25 nL was used for RT-qPCR. RT-qPCR reactions were prepared using TaqMan RNA-to-CT 1-step kit (Life Technologies), RNA from splicing reactions, Ad2 (forward: […]; reverse: […]; probe: […]) and Ftz (forward: […]; reverse: […]; probe: […]) mRNA primer-probe sets. Prism 6 (Graphpad) was used for non-linear regression curve fitting of the formed spliced product and normalized to the control (DMSO) sample.

SF3b complexes = target: T1, SF3b complexes (Homo sapiens, UniProt O75533+Q7RTV0); experiment: Scintillation proximity assay (SPA) with [3H]-labelled pladienolide probe; type: binding; settings: SF3B1 (WT); geometric mean; read-out: SPA-ATS GMean IC50 (nM) SF3B1 (WT)
T1 construct: endogenous in cells; host or cells: Nuclear extracts; A HeLa S3 extract preparation is described for the in vitro splicing assay
Description: Scintillation Proximity Assay (SPA) with [^3-H]-Labelled Pladienolide Probe
as §1

[2] = system: NCI-H1568 cells (high MCL1); experiment: Cell proliferation and viability, CellTiter-Glo, 72 hours; type: cell-based; settings: for GI50: geometric mean
Description: Cell lines were maintained in RPMI-1640 (ATCC 30-2001) supplemented with 10% fetal bovine serum (FBS). The Panc lines were supplemented in addition with insulin and FBS up to 15% total.
Compounds for assay were prepared as stocks in 90% dimethyl sulfoxide (DMSO), assessed for purity by LC/MS, and serially diluted in DMSO using a low-volume liquid handler (VIAFLO ASSIST and VIAFLO II electronic 16-channel pipette, 0.5-12.5 μL) in an 11-point half-log serial dilution to create a master dose response (MDR) source used for all tests.
Transfer of compounds from the MDR source plate to cell assay-ready plates were accomplished directly by low-energy acoustic transfer (ATS100, EDC Biosystems). After transfer of compounds to the assay plate, the dose-response range experienced by cells was typically 10 μM-100 pM (5 logs), and final DMSO concentration in the assay was 0.1%, uniformly. Each assay plate was self-anchored containing vehicle/DMSO negative controls, medium-only/positive controls, and cidal control dose-responses of bortezomib and staurosporine. Assay-ready plates were heat-sealed and stored at −20° C. until used, no longer than one month.
A DMSO-matched time zero (T0) plate was read and then all other plates were incubated at 37° C. with 5% CO2 and 95% relative humidity until the end of assay. Cell proliferation and viability assays were performed 72 hours post-treatment depending on cell growth where at least one doubling would have occurred.
Assessment of viability and proliferation was by measurement of cell ATP content using CellTiter-Glo® Luminescent Cell Viability Assay reagent (Promega) according to the manufacturer's instructions (CellTiter-Glo® Luminescent Cell Viability Assay Technical Bulletin Instructions for Use of Product(s) G7570, G7571, G7572, G7573 Literature #TB288, Revised March 2015), using a microtiter plate reader (Envision, PE).
Cell proliferation was evaluated using the time zero (T0) signal as the positive control and the within-plate vehicle wells (DMSO) as the negative control. Data was converted to percent inhibition and falls into the range from −100% to 100% of growth where −100% equals a cidal response and 100% equals uninhibited or maximal growth. Cell growth at or near 0% is considered a static response.

[3] = Ad2.1 pre-mRNA substrate, read-out: qPCR-IVS-ATS GMean IC50 (nM) Ad2.1
[4] = Ad2.2 pre-mRNA substrate, read-out: qPCR-IVS-ATS GMean IC50 (nM) Ad2.2
[5] = NCI-H1568, 72 h, read-out: CTGlo-ATS GMean GI50 (nM) 72 h NCIH1568.1, NCIH1568.1 cells, 72 h
[6] = NCIH1568.1 cells, 72 h, −100% cidal, 0% static, 100% maximal growth
[7] = 72 h, NCIH1568.1, -100% = cidal, 0% = static, 100% = uninhibited growth
[8] = NCI-H1568, read-out: CTGlo-ATS GMean GI50 (nM) 72 h NCIH1568.1, NCIH1568.1 cells, 72 h

SMILES | IC50 [1, 3] [nM] | IC50 [1, 4] [nM] | IC50 (SF3b complexes) [nM] | GI50 [2, 5] [nM] | CTGlo-ATS Mean MinResponse % 72 h NCIH1568.1 [2, 6] [%] | Ratio Ad2.1/2.2 ([1]; ratio of IVS IC50 Ad2.1 to Ad2.2) | CTGlo-ATS Mean MinResponse % 72 h NCIH1568.1 [2, 7] [%] | GI50 ([2]; NCI-H1568, read-out: CTGlo-ATS GMean GI50 (nM) 72 h NCIH1568.1, 72 h, NCIH1568.1) [nM] | GI50 [2, 8] [nM] | GI50 ([2]; NCI-H1568, 72 h, read-out: CTGlo-ATS GMean GI50 (nM) 72 h NCIH1568.1, 72 h, NCIH1568.1) [nM]
CCN(c1cc(F)cc(/C=C(\C)[C@H]2OC(=O)C[C@H](O)CC[C@H](C)[C@@H](OC(=O)N3CCN(C)CC3)/C=C/[C@@H]2C)c1)C1CCN(S(C)(=O)=O)CC1 [Compound 175] | 9.5 | 8.12 | 5.83 | 9.49 | −99.134 |  |  |  |  | 
C/C(=C\c1cc(F)cc(N2CCN(C(=O)Cn3cccn3)CC2)c1)[C@H]1OC(=O)C[C@H](O)CC[C@H](C)[C@@H](OC(=O)N2CCN(Cc3cccc(O)c3)CC2)/C=C/[C@@H]1C [Compound 251, [(2S,3S,4E,6R,7S,10R)-2-[(E)-1-[3-fluoro-5-[4-(2-pyrazol-1-ylacetyl)piperazin-1-yl]phenyl]prop-1-en-2-yl]-10-hydroxy-3,7-dimethyl-12-oxo-1-oxacyclododec-4-en-6-yl] 4-[(3-hydroxyphenyl)methyl]piperazine-1-carboxylate] | 49.7 | 28.1 | 52.4 |  |  | 1.765 | −87.236 | 13.4 |  | 
C/C(=C\c1cc(F)c2nnn(C3(C)CCOCC3)c2c1)[C@H]1OC(=O)C[C@H](O)CC[C@H](C)[C@@H](OC(=O)N2CCN(C)CC2)/C=C/[C@@H]1C [Compound 156] | 8.37 | 7.91 | 3.95 | 1.27 | −87.369 |  |  |  |  | 
C/C(=C\c1cc(F)cc(N2CCN(C(=O)C3COC3)CC2)c1)[C@H]1OC(=O)C[C@H](O)CC[C@H](C)[C@@H](OC(=O)N2CCN(C)CC2)/C=C/[C@@H]1C [Compound 153] | 14.5 | 14.8 | 4.83 |  | −81.206 |  |  |  | 2.34 | 
C/C(=C\c1cc(F)cc(N2CCCNC2=O)c1)[C@H]1OC(=O)C[C@H](O)CC[C@H](C)[C@@H](OC(=O)N2CCN(C)CC2)/C=C/[C@@H]1C [Compound 79] | 18 | 12.3 | 2.14 | 4.01 | −72.802 |  |  |  |  | 
C/C(=C\c1cc(F)cc(N(C)C2CCN(C(=O)c3cnco3)CC2)c1)[C@H]1OC(=O)C[C@H](O)CC[C@H](C)[C@@H](OC(=O)N2CCN(C)CC2)/C=C/[C@@H]1C [Compound 188] | 7.41 | 5.63 | 2.61 |  | −79.922 |  |  |  | 2.77 | 
CCCS(=O)(=O)N1CCC(N(C)c2cc(F)cc(/C=C(\C)[C@H]3OC(=O)C[C@H](O)CC[C@H](C)[C@@H](OC(=O)N4CCN(C)CC4)/C=C/[C@@H]3C)c2)CC1 [Compound 182] | 208 | 40.1 | 86.4 | 23.4 | −69.521 |  |  |  |  | 
C/C(=C\c1cc(F)cc(N(C(C)C)C2CCN(S(C)(=O)=O)CC2)c1)[C@H]1OC(=O)C[C@H](O)CC[C@H](C)[C@@H](OC(=O)N2CCN(C)CC2)/C=C/[C@@H]1C [Compound 176] | 49.7 | 31.2 | 38.5 |  | −88.183 |  |  |  | 19 | 
C/C(=C\c1cc(F)cc(N2CCN(C(=O)Cn3cccn3)CC2)c1)[C@H]1OC(=O)C[C@H](O)CC[C@H](C)[C@@H](OC(=O)N2CCC(N(C)C)C2)/C=C/[C@@H]1C (stereo in doubt) [Compound 227, [(2S,3S,4E,6R,7S,10R)-2-[(E)-1-[3-fluoro-5-[4-(2-pyrazol-1-ylacetyl)piperazin-1-yl]phenyl]prop-1-en-2-yl]-10-hydroxy-3,7-dimethyl-12-oxo-1-oxacyclododec-4-en-6-yl] (3S)-3-(dimethylamino)pyrrolidine-1-carboxylate] |  |  | 3.25 |  |  |  | −81.522 |  |  | 2.37
